In ChEMBL document CHEMBL4396956 (Bioorg Med Chem, 2019):
Active and inactive are the calls of the source. No cut-off for these calls is given here.

What was measured:
[1] = target: Glucagon-like peptide 1 receptor (Homo sapiens, UniProt P43220); assay: Agonist activity at human GLP1 receptor expressed in HEK293 cells assessed as induction of cAMP levels after 20 mins by time-resolved fluorescence analysis; format: functional, cell-based
Rattus norvegicus [2] = assay: Antidiabetic activity in Sprague-Dawley rat assessed as increase in insulin level at 25 nmol/kg, ip pretreated for 30 mins followed by glucose challenge and measured after 15 to 60 mins by ELISA method; format: functional
Rattus norvegicus [3] = assay: Antidiabetic activity in Sprague-Dawley rat assessed as decrease in glucose level at 25 nmol/kg, ip pretreated for 30 mins followed by glucose challenge and measured up to 180 mins by OGTT relative to control; format: functional, organism-based
Mus musculus = assay: Antidiabetic activity in STZ-induced diabetic Kunming mouse assessed as hypoglycemic time duration for glycemia under 8.35 mmol/L at 25 nmol/kg, ip pretreated with STZ for 5 consecutive days and measured up to 48 hrs; format: functional

Glucagon-like peptide 1 receptor, sequence (P43220 whole entry): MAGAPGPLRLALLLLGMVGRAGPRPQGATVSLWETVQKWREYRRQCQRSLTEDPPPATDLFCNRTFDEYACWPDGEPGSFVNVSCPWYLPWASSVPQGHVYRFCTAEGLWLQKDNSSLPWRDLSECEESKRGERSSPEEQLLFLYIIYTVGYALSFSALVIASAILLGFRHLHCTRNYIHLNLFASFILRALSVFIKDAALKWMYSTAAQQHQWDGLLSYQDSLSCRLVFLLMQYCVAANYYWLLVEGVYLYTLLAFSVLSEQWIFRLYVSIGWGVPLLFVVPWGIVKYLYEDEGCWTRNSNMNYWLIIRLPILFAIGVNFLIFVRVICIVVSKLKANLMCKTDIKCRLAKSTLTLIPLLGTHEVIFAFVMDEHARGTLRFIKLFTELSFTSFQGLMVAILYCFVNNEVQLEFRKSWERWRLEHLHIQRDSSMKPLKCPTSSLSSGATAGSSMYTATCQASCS

| Compound | EC50 [1] | Activity (Rattus norvegicus [2]) | Activity (Rattus norvegicus [3]) | Time (Mus musculus) |
| --- | --- | --- | --- | --- |
| CC[C@H](C)[C@H](NC(=O)[C@H](Cc1ccc(O)cc1)NC(=O)[C@H](CC(C)C)NC(=O)[C@H](CCCNC(=N)N)NC(=O)[C@@H](NC(=O)[C@H](C)NC(=O)[C@H](CCC(=O)O)NC(=O)[C@H](CCC(=O)O)NC(=O)[C@H](CCC(=O)O)NC(=O)[C@H](CCSC)NC(=O)[C@H](CCC(N)=O)NC(=O)[C@H](CCCCN)NC(=O)[C@H](CO)NC(=O)[C@H](CC(C)C)NC(=O)[C@H](CC(=O)O)NC(=O)[C@H](CO)NC(=O)[C@@H](NC(=O)[C@H](Cc1ccccc1)NC(=O)[C@@H](NC(=O)CNC(=O)[C@H](CCC(=O)O)NC(=O)CNC(=O)[C@@H](N)Cc1cnc[nH]1)[C@@H](C)O)[C@@H](C)O)C(C)C)C(=O)N[C@@H](CCC(N)=O)C(=O)N[C@@H](Cc1c[nH]c2ccccc12)C(=O)N[C@@H](CC(C)C)C(=O)N[C@@H](CCCCN)C(=O)N[C@@H](CCC(=O)O)C(=O)NCC(=O)NCC(=O)N1CCC[C@H]1C(=O)N[C@@H](CO)C(=O)N[C@@H](CO)C(=O)NCC(=O)N[C@@H](CCCNC(=N)N)C(=O)N1CCC[C@H]1C(=O)N1CCC[C@H]1C(=O)N1CCC[C@H]1C(=O)N[C@@H](CO)C(=O)N[C@@H](CSC1CC(=O)N(CCCCCCCCCCCC(=O)N[C@@H](CCC(=O)O)C(=O)O)C1=O)C(N)=O (stereo not given in full) | 0.0202 nM | – | – | – |
| CC[C@H](C)[C@H](NC(=O)[C@H](Cc1ccc(O)cc1)NC(=O)[C@H](CC(C)C)NC(=O)[C@H](CCCNC(=N)N)NC(=O)[C@@H](NC(=O)[C@H](C)NC(=O)[C@H](CCC(=O)O)NC(=O)[C@H](CCC(=O)O)NC(=O)[C@H](CCC(=O)O)NC(=O)[C@H](CCSC)NC(=O)[C@H](CCC(N)=O)NC(=O)[C@H](CSC1CC(=O)N(CCCCCCCCCCCC(=O)N[C@@H](CCC(=O)O)C(=O)O)C1=O)NC(=O)[C@H](CO)NC(=O)[C@H](CC(C)C)NC(=O)[C@H](CC(=O)O)NC(=O)[C@H](CO)NC(=O)[C@@H](NC(=O)[C@H](Cc1ccccc1)NC(=O)[C@@H](NC(=O)CNC(=O)[C@H](CCC(=O)O)NC(=O)CNC(=O)[C@@H](N)Cc1cnc[nH]1)[C@@H](C)O)[C@@H](C)O)C(C)C)C(=O)N[C@@H](CCC(N)=O)C(=O)N[C@@H](Cc1c[nH]c2ccccc12)C(=O)N[C@@H](CC(C)C)C(=O)N[C@@H](CCCCN)C(=O)N[C@@H](CCC(=O)O)C(=O)NCC(=O)NCC(=O)N1CCC[C@H]1C(=O)N[C@@H](CO)C(=O)N[C@@H](CO)C(=O)NCC(=O)N[C@@H](CCCNC(=N)N)C(=O)N1CCC[C@H]1C(=O)N1CCC[C@H]1C(=O)N1CCC[C@H]1C(=O)N[C@@H](CO)C(N)=O (stereo not given in full) | 0.0182 nM | – | – | – |
| CCCCCCCCCCCCCCCC(=O)N[C@@H](CCC(=O)NCCCC[C@H](NC(=O)[C@H](C)NC(=O)[C@H](C)NC(=O)[C@H](CCC(N)=O)NC(=O)CNC(=O)[C@H](CCC(=O)O)NC(=O)[C@H](CC(C)C)NC(=O)[C@H](Cc1ccc(O)cc1)NC(=O)[C@H](CO)NC(=O)[C@H](CO)NC(=O)[C@@H](NC(=O)[C@H](CC(=O)O)NC(=O)[C@H](CO)NC(=O)[C@@H](NC(=O)[C@H](Cc1ccccc1)NC(=O)[C@@H](NC(=O)CNC(=O)[C@H](CCC(=O)O)NC(=O)[C@H](C)NC(=O)[C@@H](N)Cc1cnc[nH]1)[C@@H](C)O)[C@@H](C)O)C(C)C)C(=O)N[C@@H](CCC(=O)O)C(=O)N[C@@H](Cc1ccccc1)C(=O)N[C@H](C(=O)N[C@@H](C)C(=O)N[C@@H](Cc1c[nH]c2ccccc12)C(=O)N[C@@H](CC(C)C)C(=O)N[C@H](C(=O)N[C@@H](CCCNC(=N)N)C(=O)NCC(=O)N[C@@H](CCCNC(=N)N)C(=O)NCC(=O)O)C(C)C)[C@@H](C)CC)C(=O)O [LIRAGLUTIDE] | – | 411 pmol/L | Active | 13.1 h |
